Reference: publication PMC11288027, “Exploring novel microbial metabolites and drugs for inhibiting Clostridioides difficile” (mSphere, 2024)
pIC50: −log10 of the molar value. In brackets after ≈: the same amount, converted by molar mass. Read-outs that look alike come from different tables or passages of the source.

Key:
E. fecalis = test: MIC against human gut microbiota; assay type: cell-based, Enterococcus faecalis; settings: Enterococcus faecalis; E. fecalis HM-970, TSB, aerobic; read-out: minimum inhibitory concentration (MIC)
L. casei = test: MIC against human gut microbiota; assay type: cell-based; settings: Lacticaseibacillus casei, ATCC334; L. casei ATCC 334, MRS broth, 5% CO2; read-out: minimum inhibitory concentration (MIC)
Escherichia coli = system: Escherichia coli; set-up: method as in earlier work; settings: cited from earlier work
[1] = system: C. difficile ATCC BAA-1870; test: Time-kill assay at 5 × MIC; settings: C. difficile ATCC BAA-1870, ~10^6 CFU/mL, up to 24 h
[2] = system: monkey kidney epithelial (Vero) cells; test: Cytotoxicity assessment against Vero cells (MTS); settings: Vero IC50 relative to MIC90 of C. difficile panel
[3] = system: C. difficile clinical isolates; test: MIC against a panel of 20 C. difficile clinical isolates (broth microdilution); assay type: cell-based, Clostridioides difficile; settings: Clostridioides difficile; for MIC50: concentration that inhibited 50% of the 20 C. difficile clinical isolates
B. dorei = test: MIC against human gut microbiota; assay type: cell-based, Bacteroides dorei; settings: Phocaeicola dorei; B. dorei HM- 719, BHIS broth, anaerobic; read-out: minimum inhibitory concentration (MIC)
enterococcal species = test: MIC against human gut microbiota, summary in text; assay type: cell-based; settings: summary over the Enterococcus strains of Table 4
Bif. adolescentis = test: MIC against human gut microbiota; assay type: cell-based, Bifidobacterium adolescentis; settings: Bifidobacterium adolescentis; Bif. adolescentis HM- 633, BHIS broth, anaerobic; read-out: minimum inhibitory concentration (MIC)
[4] = system: C. difficile ATCC BAA-1870; test: MIC of active hits by broth microdilution; settings: Clostridioides difficile, ATCCBAA1870, 48 h, C. difficile ATCC BAA-1870, 48 h anaerobic
in vitro = settings: monkey
Bif. breve = test: MIC against human gut microbiota; assay type: cell-based, Bifidobacterium breve; settings: Bifidobacterium breve, ATCC15700; Bif. breve ATCC 15700, BHIS broth, anaerobic; read-out: minimum inhibitory concentration (MIC)
Bacillus subtilis = system: Bacillus subtilis; set-up: method as in earlier work; settings: cited from earlier work
B. fragilis = test: MIC against human gut microbiota; assay type: cell-based, Bacteroides fragilis; settings: Bacteroides fragilis, anaerobic, read-out: minimum inhibitory concentration (MIC)
L. rhamanosus = test: MIC against human gut microbiota; assay type: cell-based, Lactobacillus rhamnoosus; settings: Lactobacillus, ATCC53103; L. rhamanosus ATCC-53103, MRS broth, 5% CO2; read-out: minimum inhibitory concentration (MIC)
E. faecium = test: MIC against human gut microbiota; assay type: cell-based, Enterococcus faecium; settings: Enterococcus faecium; E. faecium HM-202, TSB, aerobic; read-out: minimum inhibitory concentration (MIC)
[5] = system: Mycobacterium tuberculosis; set-up: method as in earlier work; settings: read-out: half-maximal inhibitory concentration [IC50]; cited from earlier work
Bif. angulatum = test: MIC against human gut microbiota; assay type: cell-based, Bifidobacterium angulatum; settings: Bifidobacterium angulatum; Bif. angulatum HM- 1189, BHIS broth, anaerobic; read-out: minimum inhibitory concentration (MIC)
L. brevis = test: MIC against human gut microbiota; assay type: cell-based, Lactobacillus brevis; settings: Levilactobacillus brevis, ATCC14864; L. brevis ATCC-14864, MRS broth, 5% CO2; read-out: minimum inhibitory concentration (MIC)
Bif. longum = test: MIC against human gut microbiota; assay type: cell-based, Bifidobacterium longum; settings: Bifidobacterium longum, anaerobic, read-out: minimum inhibitory concentration (MIC)
[6] = system: methicillin-resistant S. aureus (MRSA); set-up: method as in earlier work; settings: cited from earlier work

In the case of `COc1cc2c(cc1O)CCN[C@]21CS[C@@H]2c3c(OC(C)=O)c(C)c4c(c3[C@H](COC1=O)N1[C@@H]2[C@H]2c3c(cc(C)c(OC)c3O)C[C@@H]([C@@H]1C#N)N2C)OCO4` [ET-770, ecteinascidin 770], the MIC (E. fecalis) is given as at most 2 µg/mL, the MIC (L. casei) is given as at most 2 µg/mL and the MIC (Escherichia coli) is given as 32.43 µM (≈ 25 µg/mL). The “time to eliminate / clear C. difficile” value [1] was 6 h, the “safety index: Vero IC50 as times the MIC90 against strains of C. difficile” value [2] was “more than 1024 times” and the MIC90 [3] was 0.125 µg/mL (≈ 0.162 µM). It also gave an MIC50 ([3]; 48 h) of at most 0.06 µg/mL, an MIC ([3]; ATCC630, read-out: minimum inhibitory concentration (MIC), C. difficile ATCC 630) of 0.03 µg/mL (≈ 0.0389 µM) and an MIC ([3]; ATCC43255, read-out: minimum inhibitory concentration (MIC), C. difficile ATCC 43255) of 0.06 µg/mL (≈ 0.0778 µM). The MIC ([3]; ATCCBAA1870, read-out: minimum inhibitory concentration (MIC), C. difficile ATCC BAA-1870 (Ribotype-027), purchased compounds, panel test) was 0.125 µg/mL (≈ 0.162 µM), the MIC ([3]; read-out: minimum inhibitory concentration (MIC), C. difficile CD-1 (Ribotype-027)) was 0.125 µg/mL (≈ 0.162 µM) and the MIC ([3]; read-out: minimum inhibitory concentration (MIC), C. difficile CD-6 (Ribotype-027)) was 0.125 µg/mL (≈ 0.162 µM). It also gave an MIC ([3]; read-out: minimum inhibitory concentration (MIC), C. difficile CD-10(Ribotype-027)) of 0.125 µg/mL (≈ 0.162 µM), an MIC ([3]; read-out: minimum inhibitory concentration (MIC), C. difficile CD-12) of 0.125 µg/mL (≈ 0.162 µM) and an MIC ([3]; read-out: minimum inhibitory concentration (MIC), C. difficile CD-13) of 0.06 µg/mL (≈ 0.0778 µM). The MIC ([3]; read-out: minimum inhibitory concentration (MIC), C. difficile CD-15) was 0.06 µg/mL (≈ 0.0778 µM), the MIC ([3]; read-out: minimum inhibitory concentration (MIC), C. difficile CD-22) was 0.125 µg/mL (≈ 0.162 µM) and the MIC ([3]; read-out: minimum inhibitory concentration (MIC), C. difficile CD-23) was 0.06 µg/mL (≈ 0.0778 µM). It also gave an MIC ([3]; read-out: minimum inhibitory concentration (MIC), C. difficile CD-24) of 0.125 µg/mL (≈ 0.162 µM), an MIC ([3]; read-out: minimum inhibitory concentration (MIC), C. difficile CD-26 (Ribotype-027)) of 0.125 µg/mL (≈ 0.162 µM) and an MIC ([3]; read-out: minimum inhibitory concentration (MIC), C. difficile CD-28) of 0.03 µg/mL (≈ 0.0389 µM). For the same compound, the MIC ([3]; read-out: minimum inhibitory concentration (MIC), C. difficile CD-29 (Ribotype-027)) was 0.06 µg/mL (≈ 0.0778 µM), the MIC ([3]; read-out: minimum inhibitory concentration (MIC), C. difficile CD-30) was 0.125 µg/mL (≈ 0.162 µM) and the MIC ([3]; read-out: minimum inhibitory concentration (MIC), C. difficile NR-49302) was 0.06 µg/mL (≈ 0.0778 µM). It also gave an MIC ([3]; read-out: minimum inhibitory concentration (MIC), C. difficile NR-49304) of 0.06 µg/mL (≈ 0.0778 µM), an MIC ([3]; read-out: minimum inhibitory concentration (MIC), C. difficile NR-49308) of 0.125 µg/mL (≈ 0.162 µM) and an MIC ([3]; read-out: minimum inhibitory concentration (MIC), C. difficile NR-49319) of 0.06 µg/mL (≈ 0.0778 µM). The MIC50 [3] was 0.06 µg/mL (≈ 0.0778 µM), the MIC (B. dorei) was at most 2 µg/mL and the MIC (enterococcal species) was at most 2 µg/mL. It also gave an MIC (Bif. adolescentis) of at most 2 µg/mL, an MIC [4] of at most 0.19 µg/mL and an IC50 at 24 h (in vitro) of over 128 µg/mL. For the same compound, the MIC (Bif. breve) was at most 2 µg/mL, the MIC (Bacillus subtilis) was 1.01 µM (≈ 0.779 µg/mL) and the MIC (B. fragilis; B. fragilis HM- 709, BHIS broth) was at most 2 µg/mL. It also gave an MIC (B. fragilis; B. fragilis HM- 718, BHIS broth) of at most 2 µg/mL, an MIC (L. rhamanosus) of at most 2 µg/mL and an MIC (E. faecium) of at most 2 µg/mL. The pIC50 [5] was 6.89, the MIC (Bif. angulatum) was at most 2 µg/mL and the MIC (L. brevis) was at most 2 µg/mL. The MIC (Bif. longum; Bif. longum HM- 845, BHIS broth) was at most 2 µg/mL, the MIC (Bif. longum; Bif. longum HM- 846, BHIS broth) was at most 2 µg/mL and the MIC (Bif. longum; Bif. longum HM- 847, BHIS broth) was at most 2 µg/mL. For the same compound, the MIC (Bif. longum; Bif. longum HM- 848, BHIS broth) was at most 2 µg/mL and the MIC [6] was 2.02 µM (≈ 1.56 µg/mL).
